“Also recorded” adds a separate entry of the source.
Columns and labels:
[1] = Compound exposure in rats (LC-MS/MS, brain tissue binding); format: in vivo; details: Wistar, oral, rat, 30 mg/kg, 6 h post-dose
Description: (§1) Mice and rats were maintained on 12/12 h light/dark cycle with food available ad libitum. Drug treatment was prepared in a vehicle of 1 % carboxymethylcellulose (CMC):Tween80 (99.5:0.5). Twelve-week-old wild-type male mice (129S6, Taconic Biosciences, Hudson, NY, USA) or rats (Wistar, Charles River Laboratories) were administered compound p.o. without prior fasting and euthanized by CO2 asphyxiation at specified times post-dosing. After extraction of the brain, the olfactory bulb and hindbrain were removed and the cerebral hemispheres separated (mice) or cut in 4 pieces (rats). The cerebellum was removed for bioanalysis of the compound. CSF was collected from the cisterna magna and blood from a cardiac puncture.
Cerebellums were homogenized in a Mini-BeadBeater (Biospec Products, Inc., Bartlesville, OK, USA). Brain samples, plasma, and CSF were prepared for LC-MS/MS by precipitating proteins with acetonitrile and vacuum filtration in the presence of an internal standard. Standards were prepared in the corresponding matrix. FRM-36143 was resolved by HPLC (Shimadzu) using a reverse-phase C18 Kinetex column (30X2.1 mM; Phenomenex, Torrance, CA, USA). […]
The unbound fraction in brain homogenate (fu,b) was determined in triplicate in the Rapid Equilibrium Dialysis device (8000 Da molecular weight cut-off membrane, Thermo Scientific/Pierce Biotechnology, Rockford, IL, USA). […]

γ-secretase = test: Acute oral treatment of wild-type mice, brain Aβ peptides; format: in vivo, mouse
Description: For in vivo assessment of compound efficacy, brain tissue and cerebrospinal fluid (CSF) were collected, snap frozen in liquid nitrogen, and stored at −80 °C. Brain hemispheres were homogenized in 0.6 % diethylamine (DEA) in 50 mM NaCl containing protease inhibitor cocktail (cOmplete mini, EDTA-free, Roche) using sonication (Branson) at 23 % amplitude for 30 s. Homogenates were spun at 227,000 × g for 25 min at 4 °C. Supernatants were diluted fivefold in PBS-T (0.05 % Tween-20) containing 0.67 % BSA and added to the ELISA plate. For CSF, samples were diluted threefold in the PBS-T/BSA buffer. Detection was performed using the SuperSignal™ ELISA Femto substrate (Thermo Fisher), and luminescence was read on an EnVision plate reader (Perkin Elmer).
as §1

Notch processing = test: Notch reporter assay (HeLa 6xCBF1-Luc, NotchΔE); format: cell-based, human; details: Homo sapiens, overnight
Description: The wild-type CBF1 binding element was cloned in front of the SV40 promoter-driven luciferase reporter construct of pGL3pro (Promega, Madison, WI, USA) using the following oligonucleotides: • CBF1 Fw (5’→3’): […] • CBF1 Rv (5’→3’): […]
Oligonucleotides were phosphorylated using T4 polynucleotide kinase and annealed (by heating to 90 °C and cooling to room temperature in a buffer containing 0.1 M NaCl). Plasmid pGL3pro was cleaved with BglII and dephosphorylated using alkaline phosphatase. The oligonucleotide pair was then ligated using T4 ligase with the linearized plasmid DNA. A clone containing 6 copies of the CBF1 element in front of the SV40 promoter was chosen. The 6xCBF1-RE/SV40 promoter was excised from pGL3 using XhoI and HindIII, and the fragment transferred to the pGL4.17 [luc2/Neo] vector (Promega) was opened with the same restriction enzymes.
The full length human Notch in plasmid pCMV6-XL5 (Origene, Rockville, MD, USA) was used to amplify a truncated form of Notch (NotchΔE) containing the 20-amino-acid (a.a.) signal sequence followed by 5 a.a. […]
HeLa cells stably transfected with the 6xCBF1-Luc reporter were transiently transfected with the NotchΔE construct (4 μg DNA/10^6 cells) using Lipofectamine 2000 (Thermo Fisher, Waltham, MA, USA) in 6-well plates. […] Chemiluminescence was then read on an EnVision plate reader (Perkin Elmer).

[2] = Compound exposure in mice (LC-MS/MS, brain tissue binding); format: in vivo; details: mouse
Description: as §1
Cerebellums were homogenized in a Mini-BeadBeater (Biospec Products, Inc., Bartlesville, OK, USA). Brain samples, plasma, and CSF were prepared for LC-MS/MS by precipitating proteins with acetonitrile and vacuum filtration in the presence of an internal standard. Standards were prepared in the corresponding matrix. FRM-36143 was resolved by HPLC (Shimadzu) using a reverse-phase C18 Kinetex column (30X2.1 mM; Phenomenex, Torrance, CA, USA). Following separation, the column effluent was introduced into a triple quadrupole mass spectrometer (API 5500, Applied Biosystems), optimized for detection of FRM-36143 and using multiple reaction monitoring with mass transition of 390.3 > 215.2.
The unbound fraction in brain homogenate (fu,b) was determined in triplicate in the Rapid Equilibrium Dialysis device (8000 Da molecular weight cut-off membrane, Thermo Scientific/Pierce Biotechnology, Rockford, IL, USA). Briefly, FRM-36143 stock solution (0.1 mg/mL in acetonitrile) was added to fresh mouse brain homogenate (1:4 dilution with PBS) to achieve a final concentration of 1 μg/mL. Aliquots of the brain homogenate (300 μL) were loaded into the donor side, and 500 μL of PBS into the receiver side of the dialyzer. […]

[3] = WT mice, single oral dose 30 mg/kg, 6 h post-treatment
[4] = mice, time course 0.5-24 h, 30 mg/kg p.o.
[5] = mice, time course, 30 mg/kg p.o.

concentration at 6 h ([1]; CSF, read-out: CSF concentration): 122 nM
concentration at 6 h ([1]; brain (unbound), calculated using brain tissue binding, read-out: Unbound brain exposure): 156 nM
IC50 (Notch processing): > 10 µM
concentration at 6 h ([2]; male, 129S6, brain (unbound), 30 mg/kg oral, 6 h): 427 nM
Unbound brain Cmax ([2]; 10 mg/kg oral): 235 nM
Compound: COc1nc(C2=NOC[C@H](c3cc4ccccc4o3)N2)ccc1-n1cnc(C)c1 [FRM-36143, (R)-5-(benzofuran-2-yl)-3-(6-methoxy-5-(4-methyl-1H-imidazol-1-yl)pyridin-2-yl)-5,6-dihydro-4H-1,2,4-oxadiazine]
Brain Aβ37 increase vs vehicle (γ-secretase; [3]): 3.2 fold
Brain Aβ42 reduction vs vehicle (γ-secretase; [3]): 43%
Calculated AUC0→24h of brain Aβ40 reduction (γ-secretase; mice, 30 mg/kg p.o.): 31%
Calculated AUC0→24h of brain Aβ42 reduction (γ-secretase; mice, 30 mg/kg p.o.): 34%
Peak reduction of brain Aβ40 (γ-secretase; [4]): 40%
Peak reduction of brain Aβ42 (γ-secretase; [4]): 45%
Change of brain Aβ37 and Aβ38 (γ-secretase; mice, time course, 10 mg/kg p.o.): induced an increase in Aβ37 and Aβ38
Reduction of brain Aβ40 and Aβ42 (γ-secretase; mice, time course, 10 mg/kg p.o., 10 mg/kg): did not reduce Aβ40 and Aβ42 to a great extent; also recorded: did not observe any efficacy
Peak increase of brain Aβ37 (γ-secretase; [5]): 3.1 fold
Peak increase of brain Aβ38 (γ-secretase; [5]): 2 fold
Exposure or efficacy at higher dose ([2]; 90 mg/kg vs 30 mg/kg, data not shown): did not achieve significantly higher exposure or efficacy

— article PMC5004293, “Characterization of FRM-36143 as a new γ-secretase modulator for the potential treatment of familial Alzheimer’s disease” (Alzheimer's Research & Therapy, 2016)
